These results are taken from patent US5807869A, “Quinoline derivatives, their production and use” (Takeda Chemical Industries, Ltd., priority 1995, dated 1998).

Structures can show the parent of a compound that is named as a salt.

In the test the target is T1, human GnRH receptor (Homo sapiens, UniProt P30968).
T1 construct: expressed in transfected cells; host or cells: CHO (Chinese Hamster Ovary) cells
T1 sequence (P30968 1-328): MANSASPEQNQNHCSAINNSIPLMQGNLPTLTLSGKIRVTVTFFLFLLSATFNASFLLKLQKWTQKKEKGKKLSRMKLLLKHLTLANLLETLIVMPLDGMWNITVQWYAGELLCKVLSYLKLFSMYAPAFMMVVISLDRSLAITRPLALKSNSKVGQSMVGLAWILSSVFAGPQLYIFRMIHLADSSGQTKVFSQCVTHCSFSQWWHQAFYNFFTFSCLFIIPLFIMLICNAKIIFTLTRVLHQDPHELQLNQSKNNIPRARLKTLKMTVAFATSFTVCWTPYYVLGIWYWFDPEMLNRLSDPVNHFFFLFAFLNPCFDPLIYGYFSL
Nature of the test: 125I-leuprorelin binding inhibition, membrane fraction of CHO cells expressing human GnRH receptors. The following applies: CHO cell membrane fraction, 25° C., 60 minutes, Hill plot, read-out: 125I-leuprorelin binding inhibitory rate IC50 value.

For the compound `CCOC(=O)c1cn(Cc2c(F)cccc2F)c2cc(-c3ccc(NC(=O)CC)cc3)c(CN(C)Cc3ccccc3)cc2c1=O` [Example 3, 6-(N-benzyl-N-methylaminomethyl)-1,4-dihydro-1-(2,6-difluorobenzyl)-7-(4-propionylaminophenyl)-4-oxoquinoline-3-carboxylic acid ethyl ester hydrochloride], the half-inhibitory concentration (IC50) (usually the concentration needed to halve the response being measured) worked out at 50 nM.
